The values that follow come from PubChem BioAssay (NCI).

Structures are written as SMILES. Values joined by “and” are separate entries in the source; they are usually repeats but may differ in a detail not shown here. Equal entries are not always repeated.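 All cell lines were grown in 96-well plates and treated with compound for 48 hours. Here, GI50 denotes the concentration required for 50% inhibition of growth. At the TGI there is no net growth.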 Bounds are passed on as bounds.

Test systems include CAKI-1 renal; DU-145 prostate; HCC-2998 colon; HOP-62 NSCLC; HS 578T breast; M14 melanoma; NCI-H460 lung; RXF 393 renal; SF-539 CNS; SK-MEL-2 melanoma.
What all share (assay): NCI tumour cell line growth inhibition, 48 h

`COc1ccc(/C(C)=C(\c2ccc(Cl)cc2)c2ccc(OCCN3CCCCC3)cc2)cc1F`: the GI50 with CAKI-1 renal was 3.14 µM; in the assay on DU-145 prostate, 4.64 µM; with HCC-2998 colon, 3.21 µM; in the assay on HOP-62 NSCLC, 3.34 µM; with HS 578T breast it was 2.83 µM; in the assay with M14 melanoma, 2.61 µM. Besides, the GI50 in the assay with NCI-H460 lung was 2.59 µM; in the assay on RXF 393 renal, 2.84 µM; with SF-539 CNS, 2.42 µM; in the assay on SK-MEL-2 melanoma, 3.53 µM. For the same molecule, the TGI was found to be 6.48 µM in the assay with CAKI-1 renal; 15 µM in the assay on DU-145 prostate; 7.14 µM in the assay with HCC-2998 colon; 6.58 µM with HOP-62 NSCLC; 6.78 µM in the assay on HS 578T breast; 6.17 µM in the assay on M14 melanoma. Further, the TGI with NCI-H460 lung was found to be 5.38 µM; with RXF 393 renal it was 5.75 µM; in the assay on SF-539 CNS it was 4.67 µM; in the assay on SK-MEL-2 melanoma it was 7.65 µM.
Take `CC(=O)OC1C(OC/C2=C/C3[C@@H](C(C)C)CC=C(C)[C@@H]3CC(OC(=O)/C=C/c3cn(C)cn3)[C@]3(C)C=C[C@@]2(O)O3)OCC(O)C1O` (stereo not given in full): the GI50 in the assay with CAKI-1 renal was 0.196 µM; in the assay on DU-145 prostate it was 0.0155 µM; with HCC-2998 colon, 0.0134 µM; in the assay on HOP-62 NSCLC, 0.0246 µM; in the assay with HS 578T breast it was 0.00831 µM; in the assay on NCI-H460 lung it was 0.00928 µM. The GI50 was 0.0149 µM with RXF 393 renal, 0.0123 µM in the assay on SF-539 CNS and 0.0199 µM in the assay with SK-MEL-2 melanoma. Moreover, the TGI with CAKI-1 renal was > 13.2 µM; in the assay with DU-145 prostate, 0.0475 µM; in the assay on HCC-2998 colon, 0.0658 µM; in the assay with HS 578T breast it was 0.035 µM; in the assay on RXF 393 renal, 0.0741 µM; in the assay on SF-539 CNS, 0.0598 µM.
For `C[CH2][Ge]1([CH2]C)[CH2]CC2(CCN(CCCN(C)C)C2)C[CH2]1`, the GI50 in the assay on CAKI-1 renal was 1.61 µM and 3.04 µM; with DU-145 prostate, 2.48 µM and 3.09 µM; in the assay on HCC-2998 colon, 0.21 µM and 1.68 µM; with HOP-62 NSCLC, 0.949 µM and 4.87 µM; with HS 578T breast it was 1.57 µM; in the assay with M14 melanoma, 0.333 µM. Also, the GI50 is 1.44 µM and 2.53 µM in the assay with NCI-H460 lung; 1.71 µM and 1.21 µM in the assay on RXF 393 renal; 1.78 µM and 1.71 µM with SF-539 CNS; 0.616 µM in the assay on SK-MEL-2 melanoma. Further, the TGI was 3.31 µM and 8.49 µM with CAKI-1 renal; 6.64 µM and 8.84 µM in the assay with DU-145 prostate; 0.543 µM and 3.8 µM in the assay with HCC-2998 colon; 1.89 µM and 9.25 µM in the assay on HOP-62 NSCLC; 3.3 µM with HS 578T breast; 0.624 µM with M14 melanoma. Further, the TGI in the assay with NCI-H460 lung was 3.05 µM and 4.6 µM; with RXF 393 renal it was 4.29 µM and 3.4 µM; in the assay with SF-539 CNS, 3.54 µM and 3.34 µM; with SK-MEL-2 melanoma it was 1.32 µM.
For `COc1ccc(N2CCN(CC(=O)N3CCN(c4nnc(-c5ccc(Cl)cc5)c(-c5ccc(Cl)cc5)n4)CC3)CC2)cc1`, the GI50 in the assay on CAKI-1 renal is 16.6 µM; in the assay on DU-145 prostate, 75 µM; in the assay with HCC-2998 colon it was 9.94 µM; with HOP-62 NSCLC, > 100 µM; in the assay on HS 578T breast it was > 100 µM; in the assay on M14 melanoma, 12.7 µM. The GI50 is 7 µM in the assay on NCI-H460 lung, 3.98 µM with RXF 393 renal, 3.66 µM with SF-539 CNS and 25.8 µM in the assay with SK-MEL-2 melanoma. Besides, the TGI in the assay with CAKI-1 renal was 82.7 µM; with DU-145 prostate, > 100 µM; in the assay on HCC-2998 colon, > 100 µM; with HOP-62 NSCLC it was > 100 µM; in the assay on HS 578T breast, > 100 µM; in the assay on M14 melanoma, > 100 µM. Besides, the TGI was > 100 µM in the assay with NCI-H460 lung, 23.7 µM in the assay on RXF 393 renal, 17.3 µM in the assay on SF-539 CNS and > 100 µM in the assay with SK-MEL-2 melanoma.
As to `Cc1nc2cc(NC(=O)CN3CCN(CCN4C(=O)c5cccc6cccc(c56)C4=O)CC3)ccc2s1`, the GI50 in the assay on CAKI-1 renal was 4.32 µM; in the assay on DU-145 prostate, 5.21 µM; in the assay on HCC-2998 colon, 6.66 µM; in the assay with HOP-62 NSCLC, 3.83 µM; in the assay with HS 578T breast it was 6.53 µM; in the assay with M14 melanoma, 8.76 µM. In addition, the GI50 was 3.44 µM with NCI-H460 lung, 5.46 µM in the assay on RXF 393 renal, 7.59 µM in the assay with SF-539 CNS and 6.62 µM in the assay with SK-MEL-2 melanoma. Moreover, the TGI in the assay with CAKI-1 renal was > 100 µM; in the assay on DU-145 prostate, 17.1 µM; in the assay on HCC-2998 colon, > 100 µM; in the assay on HOP-62 NSCLC, 15.1 µM; in the assay with HS 578T breast, 52.5 µM; in the assay with M14 melanoma, 23 µM. In addition, the TGI in the assay with NCI-H460 lung was 13.1 µM; with RXF 393 renal it was 25.4 µM; with SF-539 CNS it was > 100 µM; in the assay on SK-MEL-2 melanoma, 24.1 µM.
Take `O=C(/C=C/CN1CCCCC1)Nc1cc2c(Nc3ccc(F)c(Cl)c3F)ncnc2cc1OCCOC(F)F`: the GI50 in the assay with CAKI-1 renal is < 0.0151 µM; in the assay on DU-145 prostate it was 0.265 µM; with HCC-2998 colon, 1.6 µM; in the assay with HOP-62 NSCLC it was 1.64 µM; in the assay with HS 578T breast, 0.873 µM; in the assay with M14 melanoma, 2.12 µM. Moreover, the GI50 was 2.01 µM in the assay with NCI-H460 lung, 0.497 µM in the assay with RXF 393 renal, 1.12 µM in the assay with SF-539 CNS and 1.85 µM with SK-MEL-2 melanoma. In addition, the TGI in the assay on CAKI-1 renal was 1.44 µM; in the assay with DU-145 prostate it was 6.24 µM; in the assay with HCC-2998 colon it was 3.97 µM; with HOP-62 NSCLC it was 7.04 µM; in the assay on HS 578T breast it was 6.05 µM; in the assay with M14 melanoma, 6.61 µM. Further, the TGI stood at 11 µM with NCI-H460 lung, 2.38 µM in the assay with RXF 393 renal, 3.56 µM with SF-539 CNS and 4.7 µM with SK-MEL-2 melanoma.
As to `CCCCc1ccc(C(N)=O)nc1`, the GI50 in the assay on CAKI-1 renal was > 100 µM; in the assay with DU-145 prostate it was > 100 µM; with HCC-2998 colon, > 100 µM; in the assay with HOP-62 NSCLC it was > 100 µM; with HS 578T breast it was 20 µM; in the assay on M14 melanoma, > 100 µM. In addition, the GI50 in the assay on NCI-H460 lung, in the assay on RXF 393 renal, with SF-539 CNS and in the assay with SK-MEL-2 melanoma was > 100 µM throughout. The TGI with CAKI-1 renal, with DU-145 prostate, in the assay on HCC-2998 colon, in the assay with HOP-62 NSCLC, with HS 578T breast and in the assay with M14 melanoma was > 100 µM throughout. Moreover, the TGI with NCI-H460 lung, in the assay with RXF 393 renal, in the assay with SF-539 CNS and in the assay with SK-MEL-2 melanoma was > 100 µM each time.
